Test results as given in ChEMBL document CHEMBL6096733, “Structure-Based Virtual Screening Identifies 2-Arylthiazole-4-Carboxylic Acids as a Novel Class of Nanomolar Affinity Ligands for the CaMKIIα Hub Domain” (J Med Chem, 2025).

Experiments:
[1] = target: T1, Calcium/calmodulin-dependent protein kinase type II subunit alpha (Rattus norvegicus, UniProt P11275); test: Inhibition of […] binding to CaMKIIalpha in rat brain cortical membrane assessed as inhibition constant incubated for 1 hrs by TopCount NXT microplate scintillation counter analysis; assay type: cell membranes, Cortex
T1 sequence (P11275 whole entry): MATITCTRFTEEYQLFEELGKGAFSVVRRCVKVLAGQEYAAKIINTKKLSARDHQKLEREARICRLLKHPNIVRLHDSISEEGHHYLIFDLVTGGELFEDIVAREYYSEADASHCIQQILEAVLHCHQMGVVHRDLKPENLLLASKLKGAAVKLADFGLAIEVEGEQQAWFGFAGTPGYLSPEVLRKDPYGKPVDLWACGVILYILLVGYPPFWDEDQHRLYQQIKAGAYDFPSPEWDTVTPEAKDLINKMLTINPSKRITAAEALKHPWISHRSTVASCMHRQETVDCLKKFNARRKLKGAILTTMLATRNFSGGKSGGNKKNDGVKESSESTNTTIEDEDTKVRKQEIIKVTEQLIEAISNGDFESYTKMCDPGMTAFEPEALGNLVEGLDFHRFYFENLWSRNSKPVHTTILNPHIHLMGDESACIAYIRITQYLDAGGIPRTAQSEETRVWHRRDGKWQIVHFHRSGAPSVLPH

[2] = Chemical stability of compound in phosphate buffer solution at pH 7.4; assay type: physicochemical
[3] = Metabolic stability in pooled CD-1 mouse liver microsomes assessed as parent compound remaining at 10 uM measured after 60 mins in presence of NADPH regeneration system by LC-MS analysis; assay type: ADME, Microsome; conditions: read-out: Stability
[4] = target: T2, Calcium/calmodulin-dependent protein kinase type II subunit alpha (Homo sapiens, UniProt Q9UQM7); test: Binding affinity to recombinant wildtype human CAMKIIalpha hub domain (345 to 475 residues) extracted from Escherichia coli BL21 (DE3) cells assessed as dissociation constant by SPR analysis
T2 sequence (Q9UQM7 whole entry, the tested form may be a part): as the sequence (P11275 whole entry) above, with N324S counted along it

[5] = target: T2, Calcium/calmodulin-dependent protein kinase type II subunit alpha; test: Induction of thermal stabilization of recombinant wildtype human CAMKIIalpha hub domain (345 to 475 residues) extracted from Escherichia coli BL21 (DE3) cells by differential scanning fluorimetric analysis; conditions: dose 0.625-320 µM
[6] = Metabolic stability in pooled CD-1 mouse liver microsomes assessed as parent compound remaining at 10 uM measured after 15 mins in presence of NADPH regeneration system by LC-MS analysis; assay type: ADME, Microsome; conditions: read-out: Stability
[7] = Ratio of unbound brain to plasma drug concentration in mouse at 10 mg/kg, ip measured after 0.5 hrs by LC-MS/MS analysis; assay type: ADME, organism-based; conditions: brain and plasma, read-out: K(p,uu,brain)
BCRP [8] = test: Apparent permeability across basolateral to apical side in human Caco-2 cells transfected with human BCRP at 3 uM preincubated with novobiocin for 15 to 30 mins followed by compound addition and measured after 60 to 90 mins by LC-MS/MS analysis; assay type: ADME, cell-based; conditions: time 60-90 min
[9] = Drug concentration in mouse brain at 10 mg/kg, ip measured after 0.5 hrs by LC-MS/MS analysis; assay type: ADME, organism-based; conditions: read-out: Ct
BCRP [10] = test: Efflux ratio of apparent permeability across basolateral to apical side over apical to basolateral side in human Caco-2 cells transfected with human BCRP at 3 uM preincubated with novobiocin for 15 to 30 mins followed by compound addition and measured after 60 to 90 mins by LC-MS/MS analysis; assay type: ADME, cell-based; conditions: time 60-90 min
[11] = Drug concentration in mouse plasma at 10 mg/kg, ip measured after 0.5 hrs by LC-MS/MS analysis; assay type: ADME, organism-based
BCRP [12] = test: Apparent permeability across apical to basolateral side in human Caco-2 cells transfected with human BCRP at 3 uM preincubated with novobiocin for 15 to 30 mins followed by compound addition and measured after 60 to 90 mins by LC-MS/MS analysis; assay type: ADME, cell-based; conditions: time 60-90 min
[13] = Metabolic stability in pooled human plasma assessed as parent compound remaining at 20 uM measured immediately by LC-MS analysis; assay type: ADME, cell-free; conditions: read-out: Stability
BCRP [14] = test: Apparent permeability across basolateral to apical side in human Caco-2 cells transfected with human BCRP at 3 uM measured after 60 to 90 mins by LC-MS/MS analysis; assay type: ADME, cell-based; conditions: time 60-90 min
[15] = Metabolic stability in pooled CD-1 mouse liver microsomes assessed as parent compound remaining at 10 uM measured immediately in presence of NADPH regeneration system by LC-MS analysis; assay type: ADME, Microsome; conditions: read-out: Stability
BCRP [16] = test: Apparent permeability across apical to basolateral side in human Caco-2 cells transfected with human BCRP at 3 uM measured after 60 to 90 mins by LC-MS/MS analysis; assay type: ADME, cell-based; conditions: time 60-90 min
[17] = Ratio of drug concentration in mouse brain to plasma at 10 mg/kg, ip measured after 0.5 hrs by LC-MS/MS analysis; assay type: ADME, organism-based; conditions: brain and plasma, read-out: BPR
BCRP [18] = test: Efflux ratio of apparent permeability across basolateral to apical side over apical to basolateral side in human Caco-2 cells transfected with human BCRP at 3 uM measured after 60 to 90 mins by LC-MS/MS analysis; assay type: ADME, cell-based; conditions: time 60-90 min
[19] = Metabolic stability in pooled human plasma assessed as parent compound remaining at 20 uM measured after 30 mins by LC-MS analysis; assay type: ADME, cell-free; conditions: read-out: Stability
[20] = Metabolic stability in pooled human plasma assessed as parent compound remaining at 20 uM measured after 120 mins by LC-MS analysis; assay type: ADME, cell-free; conditions: read-out: Stability
[21] = Metabolic stability in pooled human plasma assessed as parent compound remaining at 20 uM measured after 60 mins by LC-MS analysis; assay type: ADME, cell-free; conditions: read-out: Stability
[22] = Metabolic stability in pooled CD-1 mouse liver microsomes assessed as parent compound remaining at 10 uM measured after 30 mins in presence of NADPH regeneration system by LC-MS analysis; assay type: ADME, Microsome; conditions: read-out: Stability
[23] = target: T2, Calcium/calmodulin-dependent protein kinase type II subunit alpha; test: Induction of thermal stabilization of recombinant wildtype human CAMKIIalpha hub domain (345 to 475 residues) extracted from Escherichia coli BL21 (DE3) cells assessed as change in melting temperature at 0.625 to 320 microM by differential scanning fluorimetric analysis; conditions: dose 0.625-320 µM
[24] = target: T1, Calcium/calmodulin-dependent protein kinase type II subunit alpha; test: Inhibition of [3H]NCS-382 binding to CaMKIIalpha in rat brain cortical membrane assessed as inhibition constant incubated for 1 hrs by TopCount NXT microplate scintillation counter analysis; assay type: cell membranes, Cortex
[25] = Drug concentration in mouse plasma at 10 mg/kg, po measured after 0.5 hrs by LC-MS/MS analysis; assay type: ADME, organism-based
[26] = Ratio of unbound brain to plasma drug concentration in mouse at 10 mg/kg, po measured after 0.5 hrs by LC-MS/MS analysis; assay type: ADME, organism-based; conditions: brain and plasma, read-out: K(p,uu,brain)
[27] = Drug concentration in mouse brain at 10 mg/kg, po measured after 0.5 hrs by LC-MS/MS analysis; assay type: ADME, organism-based; conditions: read-out: Ct
[28] = Prodrug conversion in mouse plasma assessed as 2-(2,6-dichlorophenyl)thiazole-4-carboxylic acid concentration at 10 mg/kg, po measured after 0.5 hrs by LC-MS/MS analysis; assay type: ADME, organism-based; conditions: in vivo
[29] = Prodrug conversion in mouse assessed as ratio of unbound 2-(2,6-dichlorophenyl)thiazole-4-carboxylic acid concentration in brain to plasma at 10 mg/kg, po measured after 0.5 hrs by LC-MS/MS analysis; assay type: ADME, organism-based
[30] = Prodrug conversion in mouse brain assessed as 2-(2,6-dichlorophenyl)thiazole-4-carboxylic acid concentration at 10 mg/kg, po measured after 0.5 hrs by LC-MS/MS analysis; assay type: ADME, organism-based; conditions: in vivo
[31] = Ratio of drug concentration in mouse brain to plasma at 10 mg/kg, po measured after 0.5 hrs by LC-MS/MS analysis; assay type: ADME, organism-based; conditions: brain and plasma, read-out: BPR
[32] = Prodrug conversion in mouse assessed as ratio of 2-(2,6-dichlorophenyl)thiazole-4-carboxylic acid concentration in brain to plasma at 10 mg/kg, po measured after 0.5 hrs by LC-MS/MS analysis; assay type: ADME, organism-based
[33] = Prodrug conversion in mouse brain assessed as 2-(2,6-dichlorophenyl)thiazole-4-carboxylic acid release at 10 mg/kg, po measured after 0.5 hrs by LC-MS/MS analysis; assay type: ADME, organism-based; conditions: in vivo
[34] = Prodrug conversion in mouse plasma assessed as 2-(2,6-dichlorophenyl)thiazole-4-carboxylic acid release at 10 mg/kg, po measured after 0.5 hrs by LC-MS/MS analysis; assay type: ADME, organism-based; conditions: in vivo

Compound: Cc1ccc(-c2nc(C(=O)O)cs2)cc1
- Ki ([1]; read-out: Ki): 2.3 µM
- Ki ([1]; read-out: pKi (converted)): 12.6 µM

Compound: Cc1ccc(-c2nc(CC(=O)O)cs2)cc1
- Ki ([1]; read-out: Ki): 2.9 µM

Compound: O=C(O)c1csc(-c2c(Cl)cccc2Cl)n1
- Stability [2]: Stable
- remaining at 1 h, 10 µM [3]: 100%
- Kd [4]: 759 nM
- Activity [5]: Dose-dependent-effect
- remaining at 0.25 h, 10 µM [6]: 101%
- Kp uu at 0.5 h [7]: 0.1
- Papp B→A at 3 µM (BCRP [8]): 11.4 ×10⁻⁶ cm/s
- concentration at 0.5 h [9]: 350 ng/g
- efflux ratio at 3 µM (BCRP [10]): 1.05
- Ki ([1]; read-out: Ki): 0.062 µM
- concentration at 0.5 h [11]: 18600 ng/mL
- Papp A→B at 3 µM (BCRP [12]): 10.9 ×10⁻⁶ cm/s
- remaining at 0 min, 20 µM [13]: 100%
- Papp B→A at 3 µM (BCRP [14]): 11.3 ×10⁻⁶ cm/s
- remaining at 0 min, 10 µM [15]: 100%
- Papp A→B at 3 µM (BCRP [16]): 10.7 ×10⁻⁶ cm/s
- Kp at 0.5 h [17]: 0.02
- efflux ratio at 3 µM (BCRP [18]): 1.06
- remaining at 0.5 h, 20 µM [19]: 101%
- remaining at 2 h, 20 µM [20]: 94%
- remaining at 1 h, 20 µM [21]: 98%
- remaining at 0.5 h, 10 µM [22]: 104%
- ΔTm [23]: 21.4 °C

Compound: O=C(O)c1csc(-c2c(C(F)(F)F)cccc2C(F)(F)F)n1
- Ki ([1]; read-out: Ki): > 10 µM

Compound: COc1ccccc1-c1nc(C(=O)O)cs1
- Ki ([24]; read-out: Ki): 3100 nM

Compound: O=C(O)c1csc(-c2cccc(O)c2)n1
- Ki ([1]; read-out: Ki): 2.7 µM

Compound: O=C(O)Cc1csc(-c2ccccc2Cl)n1
- Ki ([1]; read-out: Ki): 2 µM

Compound: O=C(O)c1csc(-c2c(F)cccc2F)n1
- Ki ([1]; read-out: Ki): 0.71 µM

Compound: O=C(O)c1csc(-c2ccc(Cl)c(Cl)c2)n1
- Ki ([1]; read-out: Ki): 1.6 µM

Compound: CC(C)(C)OC(=O)c1csc(-c2c(Cl)cccc2Cl)n1
- Stability [2]: Unstable
- remaining at 1 h, 10 µM [3]: 45%
- concentration at 0.5 h [25]: 137 ng/mL
- Kp uu at 0.5 h [26]: 0.49
- concentration at 0.5 h [27]: 627 ng/g
- Cp [28]: 2154 ng/mL
- remaining at 0.25 h, 10 µM [6]: 70%
- K(p,uu,brain) [29]: 0.13
- Ki ([1]; read-out: Ki): 56.4 µM
- remaining at 0 min, 20 µM [13]: 100%
- Ct [30]: 54 ng/g
- remaining at 0 min, 10 µM [15]: 100%
- Kp at 0.5 h [31]: 4.7
- remaining at 0.5 h, 20 µM [19]: 78%
- remaining at 2 h, 20 µM [20]: 70%
- remaining at 1 h, 20 µM [21]: 74%
- remaining at 0.5 h, 10 µM [22]: 53%
- BPR [32]: 0.03

Compound: CC(C)(C)COC(=O)c1csc(-c2c(Cl)cccc2Cl)n1
- Stability [2]: Unstable
- remaining at 1 h, 10 µM [3]: 59%
- remaining at 0.25 h, 10 µM [6]: 84%
- Ki ([1]; read-out: Ki): > 100 µM
- remaining at 0 min, 20 µM [13]: 100%
- Drug metabolism [33]: metabolite_notdetected
- remaining at 0 min, 10 µM [15]: 100%
- remaining at 0.5 h, 20 µM [19]: 75%
- remaining at 2 h, 20 µM [20]: 63%
- Drug metabolism [34]: metabolite_notdetected
- remaining at 1 h, 20 µM [21]: 65%
- remaining at 0.5 h, 10 µM [22]: 75%

Compound: O=C(O)c1csc(-c2ccccc2Br)n1
- Ki ([24]; read-out: Ki): 180 nM
- Ki ([24]; read-out: pKi (converted)): 158 nM

Compound: O=C(O)c1csc(-c2ccncc2)n1
- Ki ([1]; read-out: Ki): 60.2 µM

Compound: Clc1cccc(Cl)c1-c1nc(-c2nnn[nH]2)cs1
- Ki ([1]; read-out: Ki): 0.19 µM

Compound: O=C(O)c1csc(-c2ccc(-c3ccccc3)cc2)n1
- Ki ([1]; read-out: Ki): 5 µM

Compound: O=C(O)Cc1csc(-c2ccccc2)n1
- Ki ([1]; read-out: Ki): 3.1 µM

Compound: O=C(O)Cc1csc(-c2cccc3ccccc23)n1
- Ki ([1]; read-out: Ki): 9.9 µM

Compound: COc1ccc(-c2nc(C(=O)O)cs2)cc1
- Ki ([1]; read-out: Ki): 7.2 µM

Compound: O=C(O)c1cnc(-c2ccccc2)s1
- Ki ([1]; read-out: Ki): > 100 µM

Compound: COc1cccc(-c2nc(C(=O)O)cs2)c1
- Ki ([1]; read-out: Ki): 9.9 µM

Compound: Cc1ccccc1-c1nc(C(=O)O)cs1
- Ki ([1]; read-out: Ki): 0.9 µM
